Holding throughout (type): cell-based, human
Assay [1] deals with 1799, 1198 and 1170-1 cells. Nature of the assay: Cell cycle analysis by flow cytometry, HBE cell lines. Conditions: 10^−8 M or 10^−7 M, 3 days. On the procedure: NHBE and 1799 cells were plated at a concentration of 2×10^5 cells/well in six-well plates. The next day, cells were treated with deguelin (various concentrations) or DMSO (0.1%) for 3 days to achieve maximal antiproliferative effects (determined from growth curves). All cells (nonadherent and adherent) were harvested, fixed with 1% paraformaldehyde and 70% ethanol, stained with 50 μg/mL propidium iodide, and subjected to flow cytometric analysis to determine the percentage of cells in specific phases of the cell cycle (G1, S, and G2/M) as described (Sun et al., 1997). Flow cytometric analysis was performed using a Coulter EPICS Profile II flow cytometer (Coulter Corp., Miami, Fla.) equipped with a 488-nm argon laser. Approximately 10 000 events (cells) were evaluated for each sample. Two independent experiments were performed and one is presented.

Assay [2] deals with NHBE cells. Nature of the assay: Apoptosis by TUNEL and DNA fragmentation, NHBE cells. On the procedure:
NHBE, premalignant (1799 and 1198), and malignant (1170-1) HBE (2×10^6) cells were exposed to various doses of deguelin or to DMSO (0.1%) for 3 days. Apoptosis was assessed by morphology, by a flow cytometry-based, modified terminal deoxynucleotidyl transferase dUTP nick end labeling (TUNEL) assay, and by the detection of fragmented DNA. For morphology, live cells were observed by light microscopy using a ×100 objective. For TUNEL analysis, both adherent and nonadherent cells were harvested and pooled, fixed with 1% paraformaldehyde and 70% ethanol, and processed using the APO-BrdU staining kit (Phoenix Flow Systems, San Diego, Calif.), a modified TUNEL assay, as described (Lee et al., 2002). Cells treated with DMSO were used to gate the control nonapoptotic populations and as a reference for cells treated with deguelin. An internal control (HL-60 cells treated with camptothecin to induce apoptosis) provided in the apoptosis detection kit was also used to ensure that the TUNEL reaction was occurring during the staining procedure. For the detection of fragmented nucleosomal DNA, cells were processed using the TACS apoptotic DNA laddering kit (Trevigen Inc., Gaithersburg, Md.), according to the manufacturer's recommended protocol.

Assay [3] relates to squamous HBE cells. Nature of the assay: MTT proliferation assay, squamous HBE cells. The following applies: 1 day.
In assay [4] the test system is NHBE cells. The assay is described as follows: MTT proliferation assay, NHBE cells (deguelin). The following applies: 10^−9 M to 10^−7 M. On the procedure: (§1) To measure the effects of deguelin on cell proliferation, NHBE, 1799, 1198, 1170-1, and HB56B cells were plated at concentrations of 2×10^3 to 4×10^3 cells/well in 96-well plates. The next day, cells were treated with either 0.1% DMSO as a diluent control or various concentrations of deguelin (final DMSO concentration=0.1%). At the end of the assay time period, cell proliferation was measured by the 3-(4,5-dimethylthiazol-2-yl)-2,5-diphenyltetrazolium bromide (MTT) assay as described (Lee et al., 2002). Six replicate wells were used for each analysis, and data from replicate wells are presented as means with 95% confidence intervals (CIs). For some experiments, the drug concentration required to inhibit cell growth by 50% (IC50) was determined by interpolation from dose-response curves. At least three independent experiments were performed.

The subject of assay [5] is 1799 cells. Nature of the assay: MTT proliferation assay, 1799 cells. On the procedure: as §1
To determine whether deguelin-induced antiproliferative effects on premalignant HBE cells were mediated through the inhibition of the PI3K/Akt pathway, 2×10^5 1799 cells/well or 1×10 ^6 squamous HBE cells/well in six-well plates were infected with 5×10 ^3 particles/cell of a control virus (Ad5CMV) or with 1×10^3 or 5×10^3 particles/cell of Ad5CMV-MyrAkt-HA, an adenoviral vector that expresses a constitutively active Akt. (MyrAkt) in KSFM. After 1 day of infection, cells were treated with 10^−7M or 10^−6M deguelin, 2×10^−6 M or 4×10^−6M N-(4-hydroxyphenyl)retinamide (4-HPR), or 0.1% DMSO as a control and then incubated for 1 or 2 days. Apoptosis was analyzed using the APO-BrdU staining kit for TUNEL, Western blot analyses for caspase-3, and the cleavage of PARP.

With `COc1cc2c(cc1OC)[C@@H]1C(=O)c3ccc4c(c3O[C@@H]1CO2)C=CC(C)(C)O4` [deguelin, Deguelin], the cell cycle distribution entry in assay [1] is on record as “accumulated in the G2/M phase”. Also, the “apoptosis (TUNEL, DNA fragmentation)” value in assay [2] is listed as “neither a TUNEL-positive cell population nor fragmented DNA”. Further, in assay [3] (10^−7 M or 10^−6 M), the “proliferation of control squamous HBE cells” value was “decreased proliferation of control squamous HBE cells in a dose-dependent manner”. Further, in assay [3] (squamous HBE cells overexpressing constitutively active Akt, 10^−7 M to 10^−6 M), the “growth as percent of untreated cells” value is “approximately 95%”. Further, the “effect on growth of NHBE cells” value in assay [4] is given as “minimal effect”. The “reversibility of effects on cell growth” value in assay [5] (10^−7 M for 1, 2 or 3 days, then 5 days without deguelin) was “irreversible”. Further, the “decrease in cell growth” value in assay [5] (10^−7 M, 1 day) was found to be 67.1%. For the same compound, the effect on growth result in assay [5] (1799 cells infected with Ad5CMV-MyrAkt-HA, 10^−6 M) is “did not decrease the growth”. Moreover, in assay [5] (1799 cells uninfected or infected with 5×10^3 particles/cell Ad5CMV, 10^−7 M, 2 days), the “decrease in growth relative to untreated control” value was found to be 54%. The activity at 0.1 µM in assay [5] (Homo sapiens, read-out: growth as percent of control cell growth) turned out to be 85%.
